Experimental data taken from PubChem BioAssay AID248 (DTP/NCI, 2004).
Toxic doses and inconclusive results are not listed. Rule as the data show it: active = T/C of 150% or more; inactive = T/C below 125%.

System: L1210 leukemia ip in BDF1 mice, survival T/C
Assay: NCI In Vivo Anticancer Drug Screen. Data for tumor model L1210 Leukemia (intraperitoneal) in B6D2F1 (BDF1) mice
Settings: endpoint: mean survival time, higher = longer survival
Procedure, shortened: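 Transplanted-tumor mice were given test agent; controls received vehicle only. Survival readings from the two groups were divided (treated over control).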

Measured: T/C

Clc1ccccc1-n1cc(-c2ccccc2)nn1
inactive: dose: 100.0 mg/kg/injection, schedule: Q04DX002 (ip), vehicle: Klucel (hydroxypropylcellulose) (HPC) 114 % of control | dose: 200.0 mg/kg/injection, schedule: Q04DX002 (ip), vehicle: Klucel (hydroxypropylcellulose) (HPC) 108 % of control | dose: 400.0 mg/kg/injection, schedule: Q04DX002 (ip), vehicle: Klucel (hydroxypropylcellulose) (HPC) 108 % of control

Cc1cc(C)[nH]c(=O)n1
inactive: dose: 100.0 mg/kg/injection, schedule: Q01DX009 (ip), vehicle: saline 98 % of control | dose: 100.0 mg/kg/injection, schedule: Q04DX003 (ip), vehicle: saline 100 % of control | dose: 200.0 mg/kg/injection, schedule: Q01DX009 (ip), vehicle: saline 88 % of control | dose: 200.0 mg/kg/injection, schedule: Q04DX003 (ip), vehicle: saline 94 % of control | dose: 400.0 mg/kg/injection, schedule: Q04DX003 (ip), vehicle: saline 96 % of control

O=C1CC2CCCC(C1)N2Cc1ccccc1
inactive: dose: 100.0 mg/kg/injection, schedule: Q01DX001 (ip), vehicle: saline 92 % of control | dose: 200.0 mg/kg/injection, schedule: Q01DX001 (ip), vehicle: saline 97 % of control | dose: 400.0 mg/kg/injection, schedule: Q01DX001 (ip), vehicle: saline 101 % of control

CCCCCCCCCCCCCCCCCCn1cnc2ncnc(Cl)c21
inactive: dose: 12.5 mg/kg/injection, schedule: Q01DX005 (ip), vehicle: other 107 % of control | dose: 25.0 mg/kg/injection, schedule: Q01DX005 (ip), vehicle: other 102 % of control | dose: 50.0 mg/kg/injection, schedule: Q01DX005 (ip), vehicle: other 98 % of control | dose: 100.0 mg/kg/injection, schedule: Q01DX005 (ip), vehicle: other 106 % of control | dose: 200.0 mg/kg/injection, schedule: Q01DX005 (ip), vehicle: other 93 % of control

Cc1ccc(NC(C(=O)c2ccccc2)c2ccccc2)cc1 (centres undefined)
inactive: dose: 300.0 mg/kg/injection, schedule: Q01DX Z (ip), vehicle: carboxymethylcellulose (CMC) 97 % of control | dose: 450.0 mg/kg/injection, schedule: Q01DX Z (ip), vehicle: carboxymethylcellulose (CMC) 103 % of control | dose: 675.0 mg/kg/injection, schedule: Q01DX Z (ip), vehicle: carboxymethylcellulose (CMC) 107 % of control

CC(=O)OC1C=CCC2C(=O)c3cc4ccccc4cc3C(=O)C12 (centres undefined)
inactive: dose: 100.0 mg/kg/injection, schedule: Q01DX001 (ip), vehicle: other 100 % of control | dose: 200.0 mg/kg/injection, schedule: Q01DX001 (ip), vehicle: other 104 % of control

C[C@]12CCC(=O)C=C1[C@@H](F)C[C@@H]1[C@@H]2[C@@H](O)C[C@@]2(C)[C@H]1CC[C@]2(O)C(=O)CO
inactive: dose: 25.0 mg/kg/injection, schedule: Q01DX015 (ip), vehicle: carboxymethylcellulose (CMC) 106 % of control | dose: 50.0 mg/kg/injection, schedule: Q01DX015 (ip), vehicle: carboxymethylcellulose (CMC) 96 % of control | dose: 100.0 mg/kg/injection, schedule: Q01DX001 (sc), vehicle: steriod suspending solution 117 % of control | dose: 100.0 mg/kg/injection, schedule: Q01DX015 (ip), vehicle: carboxymethylcellulose (CMC) 110 % of control | dose: 200.0 mg/kg/injection, schedule: Q01DX001 (sc), vehicle: steriod suspending solution 89 % of control | dose: 200.0 mg/kg/injection, schedule: Q01DX015 (ip), vehicle: carboxymethylcellulose (CMC) 98 % of control | dose: 400.0 mg/kg/injection, schedule: Q01DX001 (sc), vehicle: steriod suspending solution 100 % of control | dose: 400.0 mg/kg/injection, schedule: Q01DX015 (ip), vehicle: carboxymethylcellulose (CMC) 86 % of control | dose: 800.0 mg/kg/injection, schedule: Q01DX001 (sc), vehicle: steriod suspending solution 105 % of control | dose: 800.0 mg/kg/injection, schedule: Q01DX015 (ip), vehicle: saline 102 % of control

O=C1c2nc3ccccc3nc2C(=O)N1OS(=O)(=O)c1ccccc1
inactive: dose: 100.0 mg/kg/injection, schedule: Q01DX009 (ip), vehicle: Klucel (hydroxypropylcellulose) (HPC) 92 % of control | dose: 200.0 mg/kg/injection, schedule: Q01DX009 (ip), vehicle: Klucel (hydroxypropylcellulose) (HPC) 105 % of control | dose: 400.0 mg/kg/injection, schedule: Q01DX009 (ip), vehicle: Klucel (hydroxypropylcellulose) (HPC) 100 % of control
